ChEMBL document CHEMBL1158018 (J Nat Prod, 1999)

What was measured:
[1] = biological target: Prostaglandin G/H synthase 1 (Homo sapiens, UniProt P23219); assay: Inhibition of PGHS1 assessed as conversion of arachidonic acid to prostaglandin
[2] = Antioxidant activity in liposomal model assessed as inhibition of ferrous ion-induced lipid peroxidation at 2 mM; assay type: functional; design: scale not given: the % may be the effect or the level left

Sequence of Prostaglandin G/H synthase 1 (P23219 whole entry): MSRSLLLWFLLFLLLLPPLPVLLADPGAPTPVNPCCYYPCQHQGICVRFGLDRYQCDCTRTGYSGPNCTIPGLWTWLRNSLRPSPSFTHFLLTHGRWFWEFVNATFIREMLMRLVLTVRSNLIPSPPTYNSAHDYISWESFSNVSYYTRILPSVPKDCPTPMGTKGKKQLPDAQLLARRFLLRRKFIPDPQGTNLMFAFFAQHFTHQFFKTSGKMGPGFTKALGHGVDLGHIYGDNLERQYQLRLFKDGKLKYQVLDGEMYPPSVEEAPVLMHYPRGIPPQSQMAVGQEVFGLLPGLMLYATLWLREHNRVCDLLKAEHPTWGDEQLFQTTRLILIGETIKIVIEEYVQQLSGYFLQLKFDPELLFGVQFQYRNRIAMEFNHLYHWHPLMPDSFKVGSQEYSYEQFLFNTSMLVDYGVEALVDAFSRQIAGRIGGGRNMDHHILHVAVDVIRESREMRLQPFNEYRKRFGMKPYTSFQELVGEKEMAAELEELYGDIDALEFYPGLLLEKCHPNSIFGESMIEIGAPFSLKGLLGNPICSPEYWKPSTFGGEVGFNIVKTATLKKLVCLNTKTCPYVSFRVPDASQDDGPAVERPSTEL

IC50 [1]: 90 µM
Compound: Oc1cc(O)c2cc(O)c(-c3ccc(O)c(O)c3)[o+]c2c1 [CYANIDIN]
Activity [2]: 57%
